Laboratory results taken from ChEMBL document CHEMBL1909046, “DrugMatrix in vitro pharmacology data”.
Where a SMILES comes first, the peptide text is derived from it. Bridges are numbered along the chain shown (N, C = ends). [ ]: non-standard residue; d: D form. The star is where a group is joined. Threoninol(2S,3R) = C[C@@H](O)[C@H](CO)N*

Columns and labels:
[1] = DRUGMATRIX: Calcium Channel Type L, Dihydropyridine radioligand binding (ligand: [3H] Nitrendipine); assay type: cell membranes, Rattus norvegicus, Wistar, Cerebral cortex, Membrane; conditions: Not Active = under 50% inhibition at 10 µM
Calcitonin receptor = target: T1, Calcitonin receptor (Homo sapiens, UniProt P30988); assay type: cell membranes, Membrane; conditions: t47d; further: in other assays of this panel Not Active means under 50% inhibition at 10 µM
T1 sequence (P30988 whole entry): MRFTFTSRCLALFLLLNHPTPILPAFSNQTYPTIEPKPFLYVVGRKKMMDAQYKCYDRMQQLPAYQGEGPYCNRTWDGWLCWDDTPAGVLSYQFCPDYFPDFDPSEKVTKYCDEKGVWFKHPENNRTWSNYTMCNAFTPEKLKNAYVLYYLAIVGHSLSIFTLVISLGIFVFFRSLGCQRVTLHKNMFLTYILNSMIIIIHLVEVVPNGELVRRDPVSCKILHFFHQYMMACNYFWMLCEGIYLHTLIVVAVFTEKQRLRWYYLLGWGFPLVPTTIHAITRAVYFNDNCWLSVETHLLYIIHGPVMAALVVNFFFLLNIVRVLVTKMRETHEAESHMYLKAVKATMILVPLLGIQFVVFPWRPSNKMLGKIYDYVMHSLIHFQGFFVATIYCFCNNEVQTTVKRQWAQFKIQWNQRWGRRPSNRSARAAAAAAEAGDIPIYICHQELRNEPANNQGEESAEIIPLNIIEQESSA

Melanocortin receptor 3 = Melanocortin receptor 3 (Homo sapiens, UniProt P41968); assay type: cell membranes, Membrane; conditions: hek293; further: in other assays of this panel Not Active means under 50% inhibition at 10 µM
Sequence of Melanocortin receptor 3 (P41968 whole entry): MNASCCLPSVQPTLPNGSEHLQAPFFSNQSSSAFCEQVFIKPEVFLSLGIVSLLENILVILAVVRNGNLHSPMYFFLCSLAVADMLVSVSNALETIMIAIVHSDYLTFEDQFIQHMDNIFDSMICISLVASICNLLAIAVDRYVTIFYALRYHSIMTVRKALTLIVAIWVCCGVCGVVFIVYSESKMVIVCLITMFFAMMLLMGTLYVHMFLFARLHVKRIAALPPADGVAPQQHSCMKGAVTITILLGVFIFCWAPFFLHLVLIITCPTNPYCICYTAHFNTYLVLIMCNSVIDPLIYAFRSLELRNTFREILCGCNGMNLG

[2] = target: T2, C-X-C chemokine receptor type 2 (Homo sapiens, UniProt P25025); assay type: cell membranes, Membrane; conditions: cho-k1; further: in other assays of this panel Not Active means under 50% inhibition at 10 µM
T2 sequence (P25025 whole entry): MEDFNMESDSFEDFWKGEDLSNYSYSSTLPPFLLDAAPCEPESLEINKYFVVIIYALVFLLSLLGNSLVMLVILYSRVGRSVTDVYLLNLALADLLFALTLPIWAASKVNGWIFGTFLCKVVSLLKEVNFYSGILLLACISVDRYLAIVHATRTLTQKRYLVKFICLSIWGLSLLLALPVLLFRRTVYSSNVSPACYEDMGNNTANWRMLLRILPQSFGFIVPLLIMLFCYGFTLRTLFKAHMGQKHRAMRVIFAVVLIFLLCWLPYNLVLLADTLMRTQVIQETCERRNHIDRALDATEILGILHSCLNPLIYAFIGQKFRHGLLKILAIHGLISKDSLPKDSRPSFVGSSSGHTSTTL

[3] = target: Platelet-activating factor receptor (Homo sapiens, UniProt P25105); assay type: tissue-based; further: in other assays of this panel Not Active means under 50% inhibition at 10 µM
Sequence of Platelet-activating factor receptor (P25105 whole entry): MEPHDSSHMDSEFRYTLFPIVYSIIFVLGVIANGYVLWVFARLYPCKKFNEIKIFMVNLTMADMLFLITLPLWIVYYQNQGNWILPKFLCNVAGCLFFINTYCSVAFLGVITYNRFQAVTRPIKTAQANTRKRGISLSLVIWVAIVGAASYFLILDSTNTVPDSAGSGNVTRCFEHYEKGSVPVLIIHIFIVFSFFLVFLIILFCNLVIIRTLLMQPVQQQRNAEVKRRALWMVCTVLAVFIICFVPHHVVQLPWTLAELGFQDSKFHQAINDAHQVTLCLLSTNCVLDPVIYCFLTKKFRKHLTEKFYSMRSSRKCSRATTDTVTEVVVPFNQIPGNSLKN

[4] = target: T3, Nitric oxide synthase, inducible (Mus musculus, UniProt P29477); parameters: species or system Escherichia coli
T3 sequence (P29477 whole entry): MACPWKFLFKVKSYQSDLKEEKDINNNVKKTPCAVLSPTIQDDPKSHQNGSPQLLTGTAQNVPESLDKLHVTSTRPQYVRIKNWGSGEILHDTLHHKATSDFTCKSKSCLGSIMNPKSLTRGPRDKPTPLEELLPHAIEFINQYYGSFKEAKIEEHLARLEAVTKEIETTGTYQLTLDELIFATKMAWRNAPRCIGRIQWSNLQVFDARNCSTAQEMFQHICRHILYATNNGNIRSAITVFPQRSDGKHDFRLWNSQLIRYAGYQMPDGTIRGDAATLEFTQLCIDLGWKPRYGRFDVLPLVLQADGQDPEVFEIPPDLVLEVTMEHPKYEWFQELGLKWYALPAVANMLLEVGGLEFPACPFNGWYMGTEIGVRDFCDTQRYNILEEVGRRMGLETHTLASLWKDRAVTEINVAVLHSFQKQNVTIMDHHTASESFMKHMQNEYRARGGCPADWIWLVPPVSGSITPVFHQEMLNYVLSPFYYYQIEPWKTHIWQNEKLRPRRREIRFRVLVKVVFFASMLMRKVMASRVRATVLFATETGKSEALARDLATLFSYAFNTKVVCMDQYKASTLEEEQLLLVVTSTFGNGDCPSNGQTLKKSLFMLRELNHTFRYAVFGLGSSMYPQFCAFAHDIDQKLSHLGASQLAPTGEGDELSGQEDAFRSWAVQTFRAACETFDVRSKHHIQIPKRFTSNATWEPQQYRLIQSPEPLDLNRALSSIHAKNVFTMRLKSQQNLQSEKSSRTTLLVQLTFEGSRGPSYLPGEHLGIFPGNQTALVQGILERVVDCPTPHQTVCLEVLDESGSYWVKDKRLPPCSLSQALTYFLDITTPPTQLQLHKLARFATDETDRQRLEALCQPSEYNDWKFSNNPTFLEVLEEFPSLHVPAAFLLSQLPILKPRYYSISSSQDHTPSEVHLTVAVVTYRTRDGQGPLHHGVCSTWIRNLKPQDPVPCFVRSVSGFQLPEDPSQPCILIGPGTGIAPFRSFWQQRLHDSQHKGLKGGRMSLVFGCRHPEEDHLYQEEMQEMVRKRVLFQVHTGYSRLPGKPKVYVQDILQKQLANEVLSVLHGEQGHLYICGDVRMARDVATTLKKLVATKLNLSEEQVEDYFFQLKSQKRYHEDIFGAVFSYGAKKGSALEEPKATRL

[5] = DRUGMATRIX: Atrial Natriuretic Factor (ANF) radioligand binding (ligand: [125I] ANF (rat)); assay type: cell membranes, Cavia porcellus, Dunkin-Hartley, Adrenal gland, Membrane; conditions: Not Active = under 50% inhibition at 10 µM
Glycine receptor = Glycine receptor (Rattus norvegicus, UniProt P22771+P24524+P07727+P20781); assay type: cell membranes, Wistar, Spinal cord, Membrane; further: in other assays of this panel Not Active means under 50% inhibition at 10 µM

COc1ccccc1C(=O)N1CCC(Cc2ccccc2)CC1
Not Active: IC50 [1] | Ki [1] | IC50 (Calcitonin receptor) | IC50 (Melanocortin receptor 3) | IC50 [2] | IC50 [3] | IC50 [4] | IC50 [5] | Ki [5] | IC50 (Glycine receptor)

Cc1ccccc1C(=O)N1CCC(Cc2ccccc2)CC1
Not Active: IC50 [1] | Ki [1] | IC50 (Calcitonin receptor) | IC50 (Melanocortin receptor 3) | IC50 [2] | IC50 [3] | IC50 [4] | IC50 [5] | Ki [5] | IC50 (Glycine receptor)

O=C1CC[C@H](N2C(=O)c3ccccc3C2=O)C(=O)N1
Not Active: IC50 [1] | Ki [1] | IC50 (Calcitonin receptor) | IC50 (Melanocortin receptor 3) | IC50 [2] | IC50 [3] | IC50 [4] | IC50 [5] | Ki [5] | IC50 (Glycine receptor)

N=C(Nc1ccccc1)Nc1ccccc1
Not Active: IC50 [1] | Ki [1] | IC50 (Calcitonin receptor) | IC50 (Melanocortin receptor 3) | IC50 [2] | IC50 [3] | IC50 [4] | IC50 [5] | Ki [5] | IC50 (Glycine receptor)

C[C@@H](O)[C@H](CO)NC(=O)[C@@H]1CSSC[C@H](NC(=O)[C@H](N)Cc2ccccc2)C(=O)N[C@@H](Cc2ccccc2)C(=O)N[C@H](Cc2c[nH]c3ccccc23)C(=O)N[C@@H](CCCCN)C(=O)N[C@@H]([C@@H](C)O)C(=O)N1 (H-[dF]CF[dW]KTC-{Threoninol(2S,3R)}; disulfide 2-7)
Not Active: IC50 [1] | Ki [1] | IC50 (Calcitonin receptor) | IC50 (Melanocortin receptor 3) | IC50 [2] | IC50 [3] | IC50 [4] | IC50 [5] | Ki [5] | IC50 (Glycine receptor)

S=C=Nc1cccc2ccccc12 [1-NAPHTHYLISOTHIOCYANATE]
Not Active: IC50 [1] | Ki [1] | IC50 (Calcitonin receptor) | IC50 (Melanocortin receptor 3) | IC50 [2] | IC50 [3] | IC50 [4] | IC50 [5] | Ki [5] | IC50 (Glycine receptor)

C[C@](O)(CS(=O)(=O)c1ccc(F)cc1)C(=O)Nc1ccc(C#N)c(C(F)(F)F)c1 [(R)-BICALUTAMIDE]
Not Active: IC50 [1] | Ki [1] | IC50 (Calcitonin receptor) | IC50 (Melanocortin receptor 3) | IC50 [2] | IC50 [3] | IC50 [4] | IC50 [5] | Ki [5] | IC50 (Glycine receptor)

CCCC(=O)Nc1ccc(OCC(O)CNC(C)C)c(C(C)=O)c1 (stereo unspecified) [ACEBUTOLOL]
Not Active: IC50 [1] | Ki [1] | IC50 (Calcitonin receptor) | IC50 (Melanocortin receptor 3) | IC50 [2] | IC50 [3] | IC50 [4] | IC50 [5] | Ki [5] | IC50 (Glycine receptor)

CC(=O)Nc1ccc(O)cc1 [ACETAMINOPHEN]
Not Active: IC50 [1] | Ki [1] | IC50 (Calcitonin receptor) | IC50 (Melanocortin receptor 3) | IC50 [2] | IC50 [3] | IC50 [4] | IC50 [5] | Ki [5] | IC50 (Glycine receptor)

COc1cc2c(c3oc(=O)c4c(c13)CCC4=O)[C@@H]1C=CO[C@@H]1O2 [AFLATOXIN]
Not Active: IC50 [1] | Ki [1] | IC50 (Calcitonin receptor) | Ki (Calcitonin receptor) | IC50 (Melanocortin receptor 3) | Ki (Melanocortin receptor 3) | IC50 [2] | Ki [2] | IC50 [3] | Ki [3] | IC50 [4] | Ki [4] | IC50 [5] | Ki [5] | IC50 (Glycine receptor) | Ki (Glycine receptor)

N=C(N)NC(=O)c1nc(Cl)c(N)nc1N [AMILORIDE]
Not Active: IC50 [1] | Ki [1] | IC50 (Calcitonin receptor) | IC50 (Melanocortin receptor 3) | IC50 [2] | IC50 [3] | IC50 [4] | IC50 [5] | Ki [5] | IC50 (Glycine receptor)

Cc1cc(=O)n(-c2ccccc2)n1C [ANTIPYRINE]
Not Active: IC50 [1] | Ki [1] | IC50 (Calcitonin receptor) | IC50 (Melanocortin receptor 3) | IC50 [2] | IC50 [3] | IC50 [4] | IC50 [5] | Ki [5] | IC50 (Glycine receptor)

CN1C(=O)COc2c(C(=O)NC3CN4CCC3CC4)cc(Cl)cc21 (stereo unspecified) [AZASETRON]
Not Active: IC50 [1] | Ki [1] | IC50 (Calcitonin receptor) | IC50 (Melanocortin receptor 3) | IC50 [2] | IC50 [3] | IC50 [4] | IC50 [5] | Ki [5] | IC50 (Glycine receptor)

C[C@H]1C[C@H]2[C@@H]3CCC4=CC(=O)C=C[C@]4(C)[C@@]3(Cl)[C@@H](O)C[C@]2(C)[C@@]1(O)C(=O)CO [BECLOMETHASONE]
Not Active: IC50 [1] | Ki [1] | IC50 (Calcitonin receptor) | IC50 (Melanocortin receptor 3) | IC50 [2] | IC50 [3] | IC50 [4] | IC50 [5] | Ki [5] | IC50 (Glycine receptor)

CCOC(=O)[C@H](CCc1ccccc1)N[C@H]1CCc2ccccc2N(CC(=O)O)C1=O [BENAZEPRIL]
Not Active: IC50 [1] | Ki [1] | IC50 (Calcitonin receptor) | IC50 (Melanocortin receptor 3) | IC50 [2] | IC50 [3] | IC50 [4] | IC50 [5] | Ki [5] | IC50 (Glycine receptor)

Nc1c(CC(=O)O)cccc1C(=O)c1ccc(Br)cc1 [BROMFENAC]
Not Active: IC50 [1] | Ki [1] | IC50 (Calcitonin receptor) | IC50 (Melanocortin receptor 3) | IC50 [2] | IC50 [3] | IC50 [4] | IC50 [5] | Ki [5] | IC50 (Glycine receptor)

CCCCN1CCCCC1C(=O)Nc1c(C)cccc1C.Cl (stereo unspecified) [BUPIVACAINE HYDROCHLORIDE]
Not Active: IC50 [1] | Ki [1] | IC50 (Calcitonin receptor) | IC50 (Melanocortin receptor 3) | IC50 [2] | IC50 [3] | IC50 [4] | IC50 [5] | Ki [5] | IC50 (Glycine receptor)

O=C1CC2(CCCC2)CC(=O)N1CCCCN1CCN(c2ncccn2)CC1 [BUSPIRONE]
Not Active: IC50 [1] | Ki [1] | IC50 (Calcitonin receptor) | IC50 (Melanocortin receptor 3) | IC50 [2] | IC50 [3] | IC50 [4] | IC50 [5] | Ki [5] | IC50 (Glycine receptor)

C[C@@]12C(=O)OC(=O)[C@]1(C)[C@H]1CC[C@@H]2O1 [CANTHARIDIN]
Not Active: IC50 [1] | Ki [1] | IC50 (Calcitonin receptor) | IC50 (Melanocortin receptor 3) | IC50 [2] | IC50 [3] | IC50 [4] | IC50 [5] | Ki [5] | IC50 (Glycine receptor)
